Data as given in paper PMC12454639, “Direct disassembly of α-syn preformed fibrils into α-syn monomers by an all-D-peptide” (NPJ Parkinson's Disease, 2025).
Square brackets hold non-standard residues; d marks the D form. Peptide text beside a SMILES is read from it.

Legend:
[1] = tested on: 15N-labeled full-length acetyl-α-syn; assay: NMR paramagnetic relaxation enhancement (PRE); format: binding; details: spin-labeled SVD-1a (SVD-1a_Cys_MTSL), 1:1 with α-syn, 10 °C
Protocol: The spin-labeled analog of SVD-1a was prepared by covalent attachment of MTSL (S-(1-oxyl-2,2,5,5-tetramethyl-2,5-dihydro-1H-pyrrol-3-yl)methyl methanesulfonothioate, Toronto Research Chemicals, USA) to the C-terminal D-cysteine residue of SVD-1a_Cys. MTSL was dissolved in DMF (N,N-dimethylformamide) with a concentration of 20 mM and diluted in 200 mM HEPES, pH 7.6, to a final concentration of 2 mM. 900 µl of the solution was then added to 1 mg of lyophilized SVD-1a_Cys to create a fivefold molar excess of MTSL compared to SVD-1a_Cys. […]
NMR paramagnetic relaxation enhancement (PRE) data were recorded on 25 µM ^15N-labeled full-length acetyl-α-syn in the presence of 25 µM paramagnetically labeled (but not isotopically enriched) SVD-1a_Cys_MTSL (using a MTSL spin-label covalently attached to the SVD-1a C-terminus), resulting in a 1:1 ratio of α-syn: SVD-1a. Intensities (Ipara) were extracted from 2D ^1H–^15N Best-TROSY NMR spectra recorded at 600 MHz and 10 °C, each with 128 scans per increment, resulting in a total experimental time of 16 h per spectrum. […] The diamagnetic reference spectra and intensities (Idia) were recorded back-to-back and under identical conditions as for the paramagnetic sample. […]

small α-syn PFF seeds = assay: Time-dependent DLS of small α-syn PFF seeds disassembly; format: biochemical; design: rate constant of PFF disassembly: unit not given here; details: 200 nM PFF + 500 nM SVD-1a
Protocol: Fig. 4 SVD-1a disassembles small α-syn PFF seeds into α-syn monomers. Small α-syn PFF seeds were prepared as described previously. […] A and B Time-dependent DLS measurements with 200 nM small α-syn PFF seeds in the absence (A) and presence (B) of 500 nM SVD-1a. 1 ml sample was continuously measured in a sealed quartz cuvette at 37 °C under quiescent conditions every 60 s for 72 h in a SpectroSize 300 instrument (XtalConcepts, GE). Data are shown as a radius plot where the signal amplitude of each particle size is represented by the data point diameter. C One-phase exponential decay fit of “200 nM PFF + 500 nM SVD-1a” shown in (B). Fit was performed for particles in the range of 1–100 nm with an amplitude > 0.2. Outliers were excluded from fitting using a Q value of 1%. […] Fitting was performed using the “One phase exponential decay” fitting function from GraphPad Prism 10 (GraphPad Software Inc., USA). […] D For AFM analysis, small α-syn PFF seeds pretreated with or without 400 and 1600 nM SVD-1a were incubated and dried on a freshly cleaved mica surface, followed by washing with ddH2O and drying using a gentle stream of N2. Analysis was performed using the NanoWizard 3 system (J-1100, JPK BioAFM, USA), recording multiple surface sections. The sections shown are representative of the observed species and particle density identified on all surface sections. E Exemplary Western blot of small α-syn PFF samples incubated with SVD-1a. 200 nM small α-syn PFFs (monomer equivalent) were incubated with increasing concentrations of SVD-1a for 72 h at 37 °C. PFF and monomer samples that were incubated without SVD-1a served as controls. α-Syn was detected with the antibody Syn211. A prominent α-syn monomer band was present at the expected molecular weight. Below the monomer bands, no further bands were visible. In the upper part of the blot, above the marker range, PFFs were detected, using a longer exposure time due to a weaker signal (see Supplementary Fig. 11 for the whole blot image with different exposure times). F Size-based fractionation by centrifugal concentration followed by ELISA quantification. 200 nM small α-syn PFF (monomer equivalent) were incubated with or without SVD-1a together with a 200 nM monomer control for 72 h at 37 °C. After incubation, the samples were fractioned using a 100 kDa MWCO centrifugal concentrator (Merck, Microcon DNA Fast Flow 100 MWCO). α-Syn content of flow through (red) and retentate (blue) was quantified using an α-syn specific ELISA (BioLegend, Human α-Synuclein (Colorimetric), 448607). Shown are the fractions of the retentate and flow through as a percentage of the total concentration identified for each sample. A linear regression line (blue or red dotted lines) was included for the SVD-1a-treated samples (left) to underline the concentration dependency of the SVD-1a treatment effect. The fractions identified for the α-syn monomer control sample are shown as a bar graph (right). […] Data are shown as mean values with ±SD (n = 3).
small α-syn PFF seeds were prepared as described previously with some modifications. […] The monomer equivalent concentration was determined by measuring the α-syn concentration in the supernatant after the first centrifugation and subtracting it from the start concentration for fibrilization. […]

[2] = one-phase exponential decay, 37 °C

CC[C@@H](C)[C@@H](NC(=O)[C@@H](Cc1c[nH]cn1)NC(=O)[C@@H](CCC(=O)O)NC(=O)[C@@H](CCC(N)=O)NC(=O)[C@@H](Cc1c[nH]c2ccccc12)NC(=O)[C@@H](Cc1ccc(O)cc1)NC(=O)[C@H](NC(=O)[C@@H](CCC(=O)O)NC(=O)[C@@H](Cc1c[nH]cn1)NC(=O)[C@H](NC(=O)[C@H]1CCCN1C(=O)[C@@H](CC(C)C)NC(=O)[C@H](N)CCCNC(=N)N)[C@H](C)O)[C@H](C)O)C(=O)N[C@H](Cc1c[nH]c2ccccc12)C(=O)N[C@H](Cc1c[nH]cn1)C(=O)N[C@H](C)C(=O)N[C@H](CCCNC(=N)N)C(=O)N[C@H](CCCNC(=N)N)C(=O)N[C@H](CCCNC(=N)N)C(=O)N[C@H](CCCNC(=N)N)C(=O)N[C@H](CCCNC(=N)N)C(N)=O [SVD-1a] (H-[dR][dL][dP][dT][dH][dE][dT][dY][dW][dQ][dE][dH][dI][dW][dH][dA][dR][dR][dR][dR][dR]-NH2)
site of interaction with α-syn (PRE) [1]: interacts with the entire α-syn monomer, with the C-terminal part showing the strongest interaction
radius of monomeric α-syn formed (small α-syn PFF seeds; 37 °C, 72 h): ~ 1.6 nm
span of one-phase exponential decay (small α-syn PFF seeds; PBS pH 7.4, 37 °C, 72 h, particles 1–100 nm, amplitude > 0.2): 23.38 nm
radius of small α-syn PFF seeds eliminated (small α-syn PFF seeds; no change (26 nm) without SVD-1a): ~ 26 nm
half-life of PFF disassembly (small α-syn PFF seeds; [2]): 5.2 h
rate constant of PFF disassembly (small α-syn PFF seeds; [2]): 0.132
